Experimental findings from US20100168055A1, “COMBINATION OF MONOSACCHARIDE WITH C-GLYCOSIDE DERIVATIVE AND USE THEREOF” (L'OREAL, priority 2008, published 2010) are described below.

Test [1] concerns keratinocytes (HaCat line). Briefly: Keratinocyte proliferation in culture medium deficient in growth factors (Cyquant, Nile red, XTT probes). The test is classed as cell-based. How it is done: The keratinocytes (HaCat line) are cultured under two conditions: whole defined culture medium (standard condition) and culture medium deficient in growth factors. This deficient medium gives rise to a controlled delay in cell proliferation. Under these conditions, it is then possible to measure the effects of compounds capable of compensating for the deficiency in growth factors of the culture medium and thus of relaunching the cell multiplication and/or of stimulating cell metabolism.
The keratinocyte proliferation is measured by means of three markers on the same cell population: the level of DNA, which is proportional to the number of cells (Cyquant probe), the level of constituent polar lipids of cell membranes (Nile red probe) and the mitochondrial respiration, which reflects the general cell metabolism (XTT probe).
A general note: Tetrazolium dyes change colour on reduction, which living cells bring about.

Another test concerns type I procollagen. Kind of test: Indirect immunofluorescence detection of type I procollagen in the dermis of reconstructed skin. The class given is cell-based, human. As to the method: Conventional detection via indirect immunofluorescence of type I procollagen in the dermis of the reconstructed skin was also performed on other series of frozen sections (anti-procoll 1 antibody (MAB 1912 Millipore)+FTIC-coupled conjugate (112-095-068 Jackson Immunoresearch)). In order to obtain bearings within the cutaneous architecture during the microscopic examination of the sections, the cell nuclei of the keratinocytes and fibroblasts are localized by staining them with propidium iodide, as described above. Three frozen sections are prepared at random on each reconstructed skin and on each section, and two microscopic fields (25× objective lens) are analysed by fluorescence microscopy and photographed. The levels of fluorescence proportional to the amount of type I procollagen are compared between the control skin and the skin treated with rhamnose.

Test [2] deals with dermal fibroblasts of the reconstructed skin. Kind of test: Count of dermal fibroblasts in whole reconstructed skin (propidium iodide staining of frozen sections). As to conditions: 5 mM; within 48 hours of treatment. The test is classed as cell-based, human. The text has this:
Rhamnose was studied on a model of whole reconstructed skin in order to measure its anti-aging efficacy on the dermal compartment.
Briefly, the model of reconstructed skin used is that described by Bell et al. (Bell E. et al., The reconstitution of living skin, J. Invest. Dermatol., 1983, July; 81): it includes a dermal equivalent on which is reconstructed a multistratified epidermis; the dermal equivalent is manufactured from acid-soluble collagen, culture medium containing serum and normal adult human fibroblasts. After 5 days of shrinkage, this equivalent is inoculated with keratinocytes and then cultured for 6 days in immersion and for 7 days in emersion in order to obtain a multistratified and differentiated epidermis having a horny layer.
The reconstructed skin is treated with 5 mM rhamnose for 2 days and 5 days in the culture medium; after the treatment, the reconstructed skins are included in Tissue Tek in order to produce frozen sections 7 μm thick with a cryostat. […] Three frozen sections are prepared at random on each reconstructed skin; on each section, two microscopic fields (25× objective lens) are analysed by fluorescence microscopy and photographed. The dermal fibroblasts are thus counted for each reconstructed skin on six images in total representing the six microscopic fields considered. […]

Setting [3] is: 1 mM, HaCat keratinocytes in medium depleted in growth factors, vs untreated control.

With `C[C@H](O)[C@H](O)[C@@H](O)[C@@H](O)C=O` [rhamnose, L-rhamnose], the “efficacy on keratinocyte proliferation” value in test [1] (500 μM, medium depleted in growth factors) is recorded as “already show efficacy”. In addition, in test [1] (setting [3]), the “level of DNA (Cyquant)” value is given as “significantly increased”, the “level of polar lipids (Nile red signal)” value is “significantly increased” and the “mitochondrial respiration (XTT signal)” value is listed as “significantly increased”. Moreover, the “number of cells compared with an untreated control (keratinocyte proliferation)” value in test [1] (keratinocytes cultured in medium depleted in growth factor) was “higher number of cells”. Moreover, the “synthesis of type I procollagen by the fibroblasts” value in the test on type I procollagen (1 mM for 120 hours, reconstructed skin) is “greatly stimulated”. The “green fluorescence (proportional to amount of type I procollagen) compared with control skin” value in the test with type I procollagen (1 mM for 120 hours, reconstructed skin section) was “marked increase”. Further, the “procollagen 1 synthesis” value in the test with type I procollagen (1 mM, reconstructed skin) is listed as “stimulation”. The “procollagen 1 synthesis” value with type I procollagen (5 mM, reconstructed skin) was “stimulation”. Further, the “growth of the dermal fibroblasts of the reconstructed skin” value in test [2] is “stimulation of growth”.
